Several values for one entry are separate records, joined by “and”; a condition that tells them apart may be missing. Identical values can stand only once.
Test system: 299254-011-R-J1-PDC complex spheroids viability
Test: Anticancer human tumor 299254-011-R-J1-PDC patient-derived melanoma cell line growth inhibition [GQUAD]
Settings: for viability, T/C: stronger effect = lower value; active = viability on the fitted dose curve at most 10% of control; inactive = the rest
From the text: DNA G-quadruplex Stabilizer Agents in Combinations in Complex Spheroids
A high-throughput screen of multi-cell type tumor spheroids was designed to identify active combinations of DNA G-quadruplex stabilizer agents and targeted small molecules. Complex spheroids include a stromal component modeled by human endothelial cells (HUVEC) and fibroblasts modeled by human mesenchymal stem cells (MSCs). The concentration ranges selected for each drug and investigational agent were based upon clinically achievable concentrations if the clinical Cmax of the agent was known.
Compounds. The drugs and investigational agents: pidnarulex (CX-5461; NSC782164), APTO-253 (NSC789042), BRACO-19 (NSC847499), peposertib (NSC802822), ceralasertib (NSC780249), elimusertib (NSC800525), camonsertib (NSC841442), AZD-1390 (NSC803789), olaparib (NSC753686), talazoparib (NSC767125), ART-558 (NSC835418), sotorasib (NSC818433), MRTX-1133 (NSC836407), SN-38 (NSC673596), topotecan (NSC609699), etoposide (NSC141540), doxorubicin (NSC123127), gemcitabine (NSC613327), 5-fluorouracil (NSC19893), paclitaxel (NSC125973), vemurafenib (NSC761431), panobinostat (NSC761190), R-306465 (JNJ-16241199; NSC773264), adavosertib (NSC754352), TP-3654 (NSC805149), carboplatin (NSC241240), KSQ-4279 (NSC840948), and staurosporine (NSC755774) were obtained from the National Cancer Institute (NCI) Developmental Therapeutics Program Chemical Repository (34). The FDA-approved anticancer drug set is available from the NCI Developmental Therapeutics Program. […] The stock solutions were prepared in dimethyl sulfoxide (DMSO, Sigma-Aldrich, St. Louis, MO, cat. D2650) at 800-fold the tested concentration and stored at -70 degrees C prior to their use. All drugs and investigational agents were tested over a range starting from a high concentration at or near the clinical Cmax and decreasing in half-log increments. If the clinical Cmax for an agent had not been determined, the highest concentration tested was 10 microM.
2.3 Cell Culture. All cells were maintained in an incubator at 37 degrees C and 5% CO2 with 95% humidity. The PDC lines were cultured according to standard operating procedures established by the NCI PDMR. All PDCs were thawed and cultured in Matrigel-coated flasks prepared with a working solution of 1X Ham's F-12 nutrient mix, without supplementation (Invitrogen, cat. 11765054), 100 U/mL penicillin-streptomycin (Invitrogen, cat. 15140122), and 2.5% Matrigel (Corning Inc., cat. 354248) for the first three passages. The 857933-349-R-J2-PDC line was cultured in 6C/Colon 1B media, which includes advanced DMEM/F-12 (Thermo Fisher Scientific, cat. 12634028), 10 mM HEPES (Thermo Fisher Scientific, cat. 15630080), 1X GlutaMAX supplement (Thermo Fisher Scientific, cat. 35050061), 0.1 mg/mL primocin (InvivoGen, cat. ant-pm-2), 10% defined fetal bovine serum, heat inactivated (HyClone Laboratories Inc., cat. SH30070.03HI), 50% L-WRN conditioned media (ATCC, cat. CRL-3276), 1.25 mM N-Acetyl-L-cysteine (Sigma-Aldrich, cat. A9165), 10 mM nicotinamide (Sigma-Aldrich, cat. N0636), 1X B-27 supplement (Thermo Fisher Scientific, cat. 17504044), 1X N-2 supplement (Thermo Fisher Scientific, cat. 17502048), 10 microM Y-27632 dihydrochloride (Tocris Bioscience, cat. 1254), and 50 ng/mL human EGF recombinant protein (Thermo Fisher Scientific, cat. PHG0311). The 485176-168-R4-J1-PDC line was cultured in Panc media, which includes all 6C/Colon 1B media components plus 100 ng/mL human FGF-10 (Thermo Fisher Scientific, cat. 100-26), 500 nM SB-431542 (Selleckchem, cat. S1067), and gastrin (Tocris, cat. 3006).
[…]
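Also: spheroids exposed to the agents for seven days before readout.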
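For viability, T/C in this document: percent viability relative to DMSO vehicle control wells = 100%.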

O=C(c1cc(Cc2n[nH]c(=O)c3ccccc23)ccc1F)N1CCN(C(=O)C2CC2)CC1
> 10 µM: IC50 (curve of compound)
inactive: viability, T/C (compound 0.0316 µM) 94.2% and 117% and 81.5% | viability, T/C (compound 0.1 µM) 111% and 86.5% and 85.5% | viability, T/C (compound 0.316 µM) 101% and 84.9% and 95.2% | viability, T/C (compound 1 µM) 115% and 101% and 91.1% | viability, T/C (compound 3.16 µM) 132% and 80.7% and 87.9% | viability, T/C (compound 10 µM) 97.2% and 71.2% and 88.4%

CCCS(=O)(=O)Nc1ccc(F)c(C(=O)c2c[nH]c3ncc(-c4ccc(Cl)cc4)cc23)c1F
inactive: viability, T/C (compound 0.0316 µM) 130% and 120% and 109% | viability, T/C (compound 0.1 µM) 101% and 98.5% and 102% | viability, T/C (compound 0.316 µM) 92.2% and 107% and 95.9% | viability, T/C (compound 1 µM) 107% and 104% and 112% | viability, T/C (compound 3.16 µM) 80.6% and 104% and 103% | viability, T/C (compound 10 µM) 39.9% and 45.2% and 46.6%
7.69 µM and 9.11 µM and 9.32 µM: IC50 (curve of compound)

O=C(NO)c1cnc(N2CCN(S(=O)(=O)c3ccc4ccccc4c3)CC2)nc1
active: viability, T/C (compound 1 µM) 3.62% and 4.16% and 0.67% | viability, T/C (compound 3.16 µM) 0.32% and 0.22% | viability, T/C (compound 10 µM) 0.34% and 0.21%
inactive: viability, T/C (compound 0.0316 µM) 99.8% and 95.4% and 87.7% | viability, T/C (compound 0.1 µM) 103% and 87.4% and 81.9% | viability, T/C (compound 0.316 µM) 73.4% and 75% and 32.2%
0.465 µM and 0.475 µM and 0.21 µM: IC50 (curve of compound)

CC(C)(O)C1CCC(Nc2ccc3ncc(-c4cccc(C(F)(F)F)c4)n3n2)CC1 (configuration not stated) + CN(C)c1ccc(Nc2c3ccc(NC(=O)CCN4CCCC4)cc3nc3cc(NC(=O)CCN4CCCC4)ccc23)cc1
> 10 µM: IC50 (curve of first compound, second compound 0.0316 µM) | IC50 (curve of first compound, second compound 0.1 µM) | IC50 (curve of first compound, second compound 0.316 µM) | IC50 (curve of first compound, second compound 1 µM) | IC50 (curve of first compound, second compound 3.16 µM)
2.73 µM: IC50 (curve of first compound, second compound 10 µM)
inactive: viability, T/C (second compound 0.0316 µM, first compound 0.0316 µM) 107% | viability, T/C (second compound 0.0316 µM, first compound 0.1 µM) 117% | viability, T/C (second compound 0.0316 µM, first compound 0.316 µM) 130% | viability, T/C (second compound 0.0316 µM, first compound 1 µM) 98.6% | viability, T/C (second compound 0.0316 µM, first compound 3.16 µM) 95.1% | viability, T/C (second compound 0.0316 µM, first compound 10 µM) 92.2% | viability, T/C (second compound 0.1 µM, first compound 0.0316 µM) 97.2% | viability, T/C (second compound 0.1 µM, first compound 0.1 µM) 94.7% | viability, T/C (second compound 0.1 µM, first compound 0.316 µM) 97.8% | viability, T/C (second compound 0.1 µM, first compound 1 µM) 94.5% | viability, T/C (second compound 0.1 µM, first compound 3.16 µM) 94% | viability, T/C (second compound 0.1 µM, first compound 10 µM) 121% | viability, T/C (second compound 0.316 µM, first compound 0.0316 µM) 103% | viability, T/C (second compound 0.316 µM, first compound 0.1 µM) 92% | viability, T/C (second compound 0.316 µM, first compound 0.316 µM) 101% | viability, T/C (second compound 0.316 µM, first compound 1 µM) 89.5% | viability, T/C (second compound 0.316 µM, first compound 3.16 µM) 85.1% | viability, T/C (second compound 0.316 µM, first compound 10 µM) 133% | viability, T/C (second compound 1 µM, first compound 0.0316 µM) 89.7% | viability, T/C (second compound 1 µM, first compound 0.1 µM) 103% | viability, T/C (second compound 1 µM, first compound 0.316 µM) 88.6% | viability, T/C (second compound 1 µM, first compound 1 µM) 107% | viability, T/C (second compound 1 µM, first compound 3.16 µM) 82.8% | viability, T/C (second compound 1 µM, first compound 10 µM) 100% | viability, T/C (second compound 3.16 µM, first compound 0.0316 µM) 91.5% | viability, T/C (second compound 3.16 µM, first compound 0.1 µM) 93.9% | viability, T/C (second compound 3.16 µM, first compound 0.316 µM) 117% | viability, T/C (second compound 3.16 µM, first compound 1 µM) 112% | viability, T/C (second compound 3.16 µM, first compound 3.16 µM) 65.5% | viability, T/C (second compound 3.16 µM, first compound 10 µM) 84.2% | viability, T/C (second compound 10 µM, first compound 0.0316 µM) 105% | viability, T/C (second compound 10 µM, first compound 0.1 µM) 103% | viability, T/C (second compound 10 µM, first compound 0.316 µM) 103% | viability, T/C (second compound 10 µM, first compound 1 µM) 111% | viability, T/C (second compound 10 µM, first compound 3.16 µM) 27.6% | viability, T/C (second compound 10 µM, first compound 10 µM) 56.4%

Cc1[nH]c2ccccc2c1CCNCc1ccc(/C=C/C(=O)NO)cc1
inactive: viability, T/C (compound 0.000999 µM) 99.9% and 96.8% and 89.5% | viability, T/C (compound 0.00316 µM) 87.9% and 114% and 103% | viability, T/C (compound 0.00999 µM) 94.2% and 94.3% and 96% | viability, T/C (compound 0.0316 µM) 96.9% and 88.8% and 85.4% | viability, T/C (compound 0.0999 µM) 60.7% and 72.7% and 67.3% | viability, T/C (compound 0.316 µM) 19.8% and 19.1% and 16.6%
0.135 µM and 0.159 µM and 0.147 µM: IC50 (curve of compound)

C#Cc1c(F)ccc2cc(O)cc(-c3ncc4c(N5CC6CCC(C5)N6)nc(OCC56CCCN5CC(F)C6)nc4c3F)c12 (configuration not stated)
inactive: viability, T/C (compound 0.0316 µM) 117% and 84.2% and 84% | viability, T/C (compound 0.1 µM) 109% and 86.1% and 98.1% | viability, T/C (compound 0.316 µM) 90.8% and 85.1% and 95.8% | viability, T/C (compound 1 µM) 118% and 83.9% and 81% | viability, T/C (compound 3.16 µM) 86.5% and 93.7% and 84.6% | viability, T/C (compound 10 µM) 82.7% and 72.7% and 67.4%
> 10 µM: IC50 (curve of compound)
